Entries after “also recorded” stand apart in the source; their conditions may differ.
Columns and labels:
[1] = test system: lens crystallins; settings: Swamy-Mruthinti and Carter 1999; cited from earlier work
[2] = test system: rat lenses; test: Rat lens organ culture exposed to H2O2 with or without L-carnitine; format: cell-based, Sprague-Dawley rats; settings: after 24 h incubation with H2O2 ± L-carnitine
Description: Four-month-old Sprague-Dawley rats were anesthesized with 5 mg/kg xylazine and 65 mg/kg ketamine, and decapitated. Immediately after, eyes were enucleated, extracted and placed in 2 ml of modified TC-199 medium. Lens integrity was assessed by measuring protein leached into the medium after 30-60 min of culture; damaged lenses were discarded. One lens of each pair was placed in culture medium with no H2O2 and used as a control. […] The controlateral lens of each pair was placed in medium and, after equilibration under 5% CO2 at 37° C., was exposed to 500 μM H2O2 in the absence or presence of 300 μM L-carnitine. After 24 h of incubation, morphological characteristics and changes were recorded, and the lenses were photographed. The incubated lenses were rinsed with saline solution, blotted on filter paper, weighed, and then immediately processed for biochemical analysis. To determine lactate dehydrogenase (LDH) leakage, lenses were incubated individually in each different medium, and the medium was harvested daily and saved for LDH analysis.
Decapsulated lenses were homogenized with disposable pestles and then sonicated in extract buffer (20 mM HEPES, 0.2 mM EDTA, 0.5 mM dithiothreitol, 450 mM NaCl, 25% glycerol, […] leupeptin, 0.5 μg/ml protinin, 0.5 mM phenylmethanesulfonyl fluoride) on ice. Aliquots of the homogenate from each of the incubated lenses were removed for GSH and L-carnitine analysis. The remainder was centrifuged for 25 min at 20,000×g to separate the supernatant from the pellet. The pellet was washed with 1.0 ml buffer and dried under nitrogen. This fraction was designated “water-insoluble fraction”. The supernatant fraction was dialyzed twice against 3 ml of 0.025 mol/l phosphate buffer, pH 7.4 for 48 h and lyophilized. This fraction was designated “water-soluble” fraction. The water-soluble and water-insoluble fractions were delipidated with 3.0 ml chloroform:methanol (2:1) for 16 h under shaking followed by centrifugation at 2,000 g for 5 min.
The water-insoluble proteins were suspended in 0.2 M N-ethylmorpholine acetate (pH 8.1). An aliquot (10%) was used to quantitate the amount of total protein. Samples were digested by the sequential addition of proteolytic enzymes (collagenase, pronase, aminopeptidase and carboxypeptidase A, carboxypeptidase B and carboxypeptidase y), directly to the reaction mixture at 37° C. in the presence of 0.02% sodium azide. After enzymatic digestion, the free N-(γ-glutamyl)lysine isopeptide cross-link was resolved by HPLC and quantitated by amino acid analysis (Hohl, D., et al (1991), J Biol Chem. 266, 6626-6636). In a related set of experiments, the isopeptide content of lenses was determined without prior extraction. […]

[3] = test system: α-crystallin; test: Chaperone-like activity of α-crystallin from treated lenses (heat-induced βL-crystallin aggregation, light scattering at 360 nm); format: biochemical, rat; settings: 100 or 200 μg α-crystallin + 200 μg βL-crystallin; 55° C. or 58° C.
Description: The following experiments were performed essentially as described elsewhere (Horwitz, J. (1992) Proc Natl Acad Sci USA. 89, 10449-10453). The chaperone-like activity of α-crystallin from control and H2O2±L-carnitine treated lenses was determined by heat denaturation studies. The extent to which the unmodified or modified α-crystallin preparation protected βL-crystallin (used as the target protein) from heat-induced denaturation and aggregation was assessed as follows: 100 μg or 200 μg of α-crystallin were added to 200 μg of βL-crystallin in a 1.5-ml cuvette and made up to a final volume of 1 ml with 50 mM phosphate buffer, pH 7.0. The cuvette was placed in a temperature-regulated cell holder attached to a UV spectrophotometer. Light scattering due to protein denaturation and aggregation was monitored at. 360 nm absorbance for 3,000 s at 55° C. or for 1,800 s at 58° C.
The chaperone properties of the purified water-soluble α-crystallin were determined by crystallin (target protein) aggregation assay. Characteristically, βL-crystallin aggregates at elevated temperatures. The addition of α-crystallin either prevents or decreases the heat-induced aggregation of βL-crystallin, which is measured by light scattering at 360 nm. Since the ratio of α to β determines the degree of protection against heat-induced aggregation, we used 100 μg or 200 μg of α-crystallin and 200 μg of βL-crystallin. […]

[4] = test system: α-crystallin; test: GFAP gel forming assay (falling ball viscosimetry) with α-crystallin from treated lenses; format: biochemical, rat; settings: α-crystallin from H2O2 ± L-carnitine-treated lenses; 37° C., 1 h
Source text: The sedimentation assay devised by Nicholl and Quinlan (Nicholl, I. D., and Quinlan, R. A. (1994), EMBO J 13, 945-953) was used to assess α-crystallin-induced inhibition of intermediate filament assembly. Purified porcine glial fibrillary acidic: protein (GFAP) was used for these studies; it was purified from porcine spinal cord by axonal flotation as described previously (Pemg, M. D., et al (1999), J Cell Sci. 112, 2099-2112, MacLean-Fletcher, S., and Pollard, T. D. (1980), Biochem Biophys Res Commun 96, 18-27). The gel formation assay was based on a method used to monitor actin binding protein activity by falling ball viscometry (Pemg, M. D., et al (1999), J Cell Sci. 112, 2099-2112). α-Crystallins were mixed with GFAP in 8 M urea, 20 mM Tris-HCI, pH 8.0, 5 mM EDTA, 25 mM 2-mercaptoethanol and then stepwise dialyzed in 10 mM Tris-HCI, pH 8.0, 25 mM 2-mercaptoethanol. Assembly of the GFAP intermediate filaments, in the presence or absence of α-crystallin, was induced by the addition of a 20-fold concentrated buffer to give a final concentration of 100 mM imidazole-HCI, pH 6.8, 0.5 mM DTT. A 100-μl aliquot of sample was loaded into a glass tube and used for the viscosity assay. The tube was then immersed in a 37° C. water bath for 1 h before the gel formation assay. A ball was then placed into the tube, and the ability of the solution to support the ball was monitored. […]

[5] = test system: α-crystallin; test: Tryptophan fluorescence of α-crystallin fractions from treated lenses; parameters: species or system rat; settings: excitation 295 nm, emission 330 nm
Source text: The loss of-protein tryptophan fluorescence, an indicator of tryptophan oxidation, seems to be a marker of crystallin integrity. We therefore measured-tryptophan fluorescence in lens crystallin (Perkin-Elmer 650-40 spectrophotometer) according to a previously described method (Jones, R. H. V., and Hothersall, J. S. (1993), Exp Eye Res 57, 783-790). The excitation wavelength was set to 295 nm, and the fluorescence emission was detected at 330 nm.

Row | Compound | Effect on in vitro glycation of lens crystallins [1] | Lens clarity / opacification [2] | Lens morphology by optical and electron microscopy [2] | Capacity of α-crystallin to prevent heat-induced aggregation of βL-crystallin [3] | Inhibition of GFAP gel formation by α-crystallin [4] | Loss of tryptophan fluorescence in α-crystallin [5]
1 | CC(=O)Oc1ccccc1C(=O)O [acetyl salicylic acid] | decreased crystallin glycation | – | – | – | – | –
2 | OO [H2O2] | – | became opaque | Ballooning, liquefaction and various degrees of fiber swelling | significant decrease | did not affect gel formation | 2.7 fold
3 | CC(=O)O[C@H](CC(=O)[O-])C[N+](C)(C)C [acetyl L-carnitine] | decreased crystallin glycation | – | – | – | – | –
4 | C[N+](C)(C)C[C@H](O)CC(=O)[O-] [L-carnitine] | ineffective | remained clear; also recorded: remained transparent | cell shape was unaltered and that fiber cells were intact | prevented this negative effect | blocked GFAP gel formation to the same extent as α-crystallin from control lenses | restored the basal value

Reference: patent US7833977B2, “Use of L-Carnitine as stabilizing agent of proteins” (Sigma-Tau Industrie Farmaceutiche Riunite S.p.A., priority 2000, dated 2010)
